This note sets out measurements from paper PMC3388080 (PLoS ONE, 2012).

The assay deals with T1, NE transporter (h) (Homo sapiens, UniProt P23975).
T1 construct: purchased CEREP
As to the kind of experiment: CEREP radioligand binding. Particulars: % of control specific binding. As for the experimental part:
SB-334867 was evaluated in a selectivity screen performed at CEREP (Paris, France). The screen consisted of binding assays on a panel of 79 target receptors. The specific binding (SB) of a radioligand to each target receptor was defined as the difference between the total binding and the nonspecific binding determined in the presence of a cold competitor in excess. […] Details on the CEREP screen are available from www.cerep.fr.

T1 sequence (P23975 whole entry): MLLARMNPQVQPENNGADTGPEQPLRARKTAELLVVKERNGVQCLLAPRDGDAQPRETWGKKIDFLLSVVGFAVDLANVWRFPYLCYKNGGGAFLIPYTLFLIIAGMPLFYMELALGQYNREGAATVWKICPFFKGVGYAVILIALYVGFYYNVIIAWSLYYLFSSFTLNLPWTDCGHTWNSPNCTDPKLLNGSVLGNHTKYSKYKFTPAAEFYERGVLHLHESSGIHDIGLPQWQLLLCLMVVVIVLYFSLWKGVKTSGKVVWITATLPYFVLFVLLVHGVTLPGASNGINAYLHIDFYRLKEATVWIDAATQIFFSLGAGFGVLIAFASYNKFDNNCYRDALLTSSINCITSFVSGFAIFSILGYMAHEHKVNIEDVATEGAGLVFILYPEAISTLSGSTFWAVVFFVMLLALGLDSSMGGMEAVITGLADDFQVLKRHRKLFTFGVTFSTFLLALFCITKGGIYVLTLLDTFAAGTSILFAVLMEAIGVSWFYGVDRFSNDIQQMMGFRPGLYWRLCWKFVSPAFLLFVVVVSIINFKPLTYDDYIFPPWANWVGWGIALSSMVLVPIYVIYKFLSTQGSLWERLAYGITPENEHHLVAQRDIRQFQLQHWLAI

On to `Cc1nc2ccc(NC(=O)Nc3ccnc4cccnc34)cc2o1.Cl` [SB-334867, 1-(2-methylbenzoxazol-6-yl)-3-[1], [5]naphthyridin-4-yl-urea hydrochloride], for which the “% Control (10 µM) Mean SB” value is 49.4%.
